A short description of assay [1]: (§1) PP2C Activity Assay: HAB1 and PYL proteins were expressed and purified as described in Park et al. ((2009) Science 324(5930):1068-1071), with minor modifications. To obtain GST-HAB1, the HAB1 cDNA was cloned into pGex-2T. Expression was conducted in BL21[DE3]pLysS host cells. Transformed cells were pre-cultured overnight, transferred to LB medium and cultured at 30° C. to culture A600 of ¿0.5.The culture was then cooled on ice and MnCl2 added to 4 mM and IPTG added to 0.3 mM. After 16 hours incubation at 15° C., cells were harvested and recombinant proteins were purified on glutathione agarose as described in Park et al. To obtain 6×His-PYL receptor fusion proteins, expression constructs previously described by Okamoto et al. 2013, (PNAS 110(29): 12132-12137) were used. ABA receptors were expressed and purified as described above.For the values shown in Table B5, PP2C activity assays using recombinant receptors and PP2Cs were carried out as follows: purified proteins were pre-incubated in 160 μl assay buffer containing 100 mM Tris-HCl-pH7.9, 100 mM NaCl, 3 μg bovine serum albumin, 0.1% 2-mercaptoethanol, 1 mM MnCl2 with ABA or agonists (compounds of the present invention) for 30 minutes at room temperature. […].

The nature of assay [2]: as §1. The source holds these as a separate data set.

Each structure is given as a SMILES string. pIC50: −log10 of the molar value.

Results on one compound are retold here after ChEMBL document CHEMBL5726056, “2-oxo-3,4-dihydroquinolin-6-yl sulphonamide CPDS and their use as plant growth regulators” (2019).

For orientation: pIC50 means −log10 of the IC50, conventionally taken in molar units.

In the case of `CCN1C(=O)CC(C)c2cc(NS(=O)(=O)Cc3ccc(C4CC4)cc3)ccc21` (configuration not stated), the pIC50 is 6.70 in assay [1] and 7.00 in assay [2].
